This note sets out measurements from patent publication US9290451B2 (Hoffmann-La Roche Inc., priority 2011, dated 2016).

In one experiment the target is human CB1 receptors (Homo sapiens (Human), UniProt P21554). The experiment can be described thus: cAMP assay, CHO cells expressing human CB1 receptors. It counts as cell-based. The settings on record: CHO cells expressing human CB1, cAMP; read-out: human CB1 EC50. In a few lines: (§1)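 CHO cells expressing human CB1 or CB2 were preincubated 30 min at 30 °C in Krebs Ringer bicarbonate buffer with 1 mM IBMX, then exposed to compound 30 min at 30 °C. cAMP quantified by time-resolved FRET against a cAMP standard curve; EC50 values derived.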
For orientation: Cyclic AMP is a second messenger, typically raised through Gs and lowered through Gi signalling.

In the next experiment the target is human CB2 receptors (Homo sapiens (Human), UniProt P34972). The experiment in a line: cAMP assay, CHO cells expressing human CB2 receptors. The note with it: CHO cells expressing human CB2, cAMP; read-out: human CB2 EC50. It counts as cell-based. In a few lines: as §1

SMILES strings stand for the structures.

Sequence of human CB1 receptors (P21554 whole entry): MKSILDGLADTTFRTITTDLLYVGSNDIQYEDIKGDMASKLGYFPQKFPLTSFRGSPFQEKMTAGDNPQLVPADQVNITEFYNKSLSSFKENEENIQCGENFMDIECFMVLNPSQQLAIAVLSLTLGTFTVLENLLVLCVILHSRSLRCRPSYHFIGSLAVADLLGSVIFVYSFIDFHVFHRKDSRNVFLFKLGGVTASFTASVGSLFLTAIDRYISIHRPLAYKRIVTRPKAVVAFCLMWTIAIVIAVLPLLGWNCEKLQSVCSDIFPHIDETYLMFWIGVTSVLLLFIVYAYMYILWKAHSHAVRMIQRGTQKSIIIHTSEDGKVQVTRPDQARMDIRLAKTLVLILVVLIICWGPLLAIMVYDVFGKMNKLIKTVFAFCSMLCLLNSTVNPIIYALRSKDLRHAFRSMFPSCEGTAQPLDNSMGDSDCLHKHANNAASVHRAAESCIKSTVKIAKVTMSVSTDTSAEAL
Sequence of human CB2 receptors (P34972 whole entry): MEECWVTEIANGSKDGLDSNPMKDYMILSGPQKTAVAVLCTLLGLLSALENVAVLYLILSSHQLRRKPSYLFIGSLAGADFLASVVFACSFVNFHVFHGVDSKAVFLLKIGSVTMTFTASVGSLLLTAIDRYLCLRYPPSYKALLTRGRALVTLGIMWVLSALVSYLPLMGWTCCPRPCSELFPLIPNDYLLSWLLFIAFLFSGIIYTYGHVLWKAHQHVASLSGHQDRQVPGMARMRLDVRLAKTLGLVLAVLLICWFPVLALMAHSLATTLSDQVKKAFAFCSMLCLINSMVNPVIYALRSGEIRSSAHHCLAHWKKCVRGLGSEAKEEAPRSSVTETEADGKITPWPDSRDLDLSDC

In the case of `CC(C)CC(NC(=O)c1ccc(N2CC(F)(F)C2)c(OCC2CC2)n1)c1cccnn1` (stereo not drawn) [Example 321, 6-Cyclopropylmethoxy-5-(3,3-difluoro-azetidin-1-yl)-pyridine-2-carboxylic acid (3-methyl-1-pyridazin-3-yl-butyl)-amide], the figures for the EC50 at human CB1 receptors and on human CB2 receptors were over 10 µM and 18.9 nM, respectively.

On to `Cc1nc(C(C)(C)NC(=O)c2ccc(N3CC(=O)C3)c(OCC3CC3)n2)no1` [Example 322, 6-Cyclopropylmethoxy-5-(3-oxo-azetidin-1-yl)-pyridine-2-carboxylic acid [1-methyl-1-(5-methyl-[1,2,4]oxadiazol-3-yl)-ethyl]-amide], for which the figures for the 50% effective concentration (EC50) at human CB1 receptors and at human CB2 receptors were over 10 µM and 424 nM, respectively.

As for `Cc1nc([C@@](C)(NC(=O)c2ccc(C3CC3)c(OCC3CC3)n2)C2CC2)no1` [Example 323, 5-Cyclopropyl-6-cyclopropylmethoxy-pyridine-2-carboxylic acid [(+)-1-cyclopropyl-1-(5-methyl-[1,2,4]oxadiazol-3-yl)-ethyl]-amide], the EC50 (in general, the concentration at which the effect is half-maximal) at human CB1 receptors stood at 0.181 µM; at human CB2 receptors, 0.9 nM.

On to `Cc1nc([C@](C)(NC(=O)c2ccc(C3CC3)c(OCC3CC3)n2)C2CC2)no1` [Example 324], for which the EC50 was over 10 µM at human CB1 receptors and 4.1 nM at human CB2 receptors.

As to `CC(C)CC(NC(=O)c1ccc(N2CC(F)(F)C2)c(OCC2CC2)n1)c1cccnc1` (stereo not drawn) [Example 325, 6-Cyclopropylmethoxy-5-(3,3-difluoro-azetidin-1-yl)-pyridine-2-carboxylic acid (3-methyl-1-pyridin-3-yl-butyl)-amide], the values for the half-maximal effective concentration (EC50) at human CB1 receptors and on human CB2 receptors were over 10 µM and 17.5 nM, respectively.

With `NC(=O)[C@H](CC1CC1)NC(=O)c1ccc(C2CC2)c(Cc2ccc(F)cc2)n1` [Example 326, 5-Cyclopropyl-6-(4-fluoro-benzyl)-pyridine-2-carboxylic acid ((S)-1-carbamoyl-2-cyclopropyl-ethyl)-amide], the results for the EC50 at human CB1 receptors and at human CB2 receptors were 0.059 µM and 0.2 nM, respectively.

Take `Cc1nc([C@H](CC2CC2)NC(=O)c2ccc(C3CC3)c(Cc3ccc(F)cc3)n2)no1` [Example 327, 5-Cyclopropyl-6-(4-fluoro-benzyl)-pyridine-2-carboxylic acid [(S)-2-cyclopropyl-1-(5-methyl-[1,2,4]oxadiazol-3-yl)-ethyl]-amide]: the EC50 on human CB1 receptors came out at 0.0136 µM; at human CB2 receptors, 1.1 nM.

In the case of `NC(=O)[C@@H](NC(=O)c1ccc(C2CC2)c(OCC2CC2)n1)c1ccc(F)cc1` [Example 328, 5-Cyclopropyl-6-cyclopropylmethoxy-pyridine-2-carboxylic acid [(S)-carbamoyl-(4-fluoro-phenyl)-methyl]-amide], the concentration giving a half-maximal response (EC50) was over 10 µM at human CB1 receptors and 3.9 nM at human CB2 receptors.

As to `NC(=O)[C@@H](NC(=O)c1ccc(C2CC2)c(OCC2CC2)n1)c1ccc(Cl)cc1` [Example 329, 5-Cyclopropyl-6-cyclopropylmethoxy-pyridine-2-carboxylic acid [(S)-carbamoyl-(4-chloro-phenyl)-methyl]-amide], the concentration giving a half-maximal response (EC50) was over 10 µM at human CB1 receptors and 21.1 nM on human CB2 receptors.

For the compound `CC(C)C[C@H](NC(=O)c1cccc(S(=O)(=O)CC(C)C)n1)C(N)=O` [Example 330, 6-(2-Methyl-propane-1-sulfonyl)-pyridine-2-carboxylic acid ((S)-1-carbamoyl-3-methyl-butyl)-amide], the half-maximal effective concentration (EC50) at human CB1 receptors is over 10 µM; at human CB2 receptors it was 869 nM.

As to `CC(C)CSc1cccc(C(=O)N[C@@H](CC(C)C)C(N)=O)n1` [Example 331, 6-Isobutylsulfanyl-pyridine-2-carboxylic acid ((S)-1-carbamoyl-3-methyl-butyl)-amide], the figures for the half-maximal effective concentration (EC50) at human CB1 receptors and at human CB2 receptors were over 10 µM and 16.6 nM, respectively.

Take `O=C(N[C@@H](c1ccccn1)C(F)(F)F)c1ccc(C2CC2)c(Cc2ccc(F)cc2)n1` [Example 332, 5-Cyclopropyl-6-(4-fluoro-benzyl)-pyridine-2-carboxylic acid ((S)-2,2,2-trifluoro-1-pyridin-2-yl-ethyl)-amide]: the values for the EC50 at human CB1 receptors and at human CB2 receptors were 0.091 µM and 4.5 nM, respectively.

As for `CCC(CC)(NC(=O)c1ccc(C2CC2)c(Cc2ccc(F)cc2)n1)C(=O)O` [Example 333, 2-{[5-Cyclopropyl-6-(4-fluoro-benzyl)-pyridine-2-carbonyl]-amino}-2-ethyl-butyric acid], the EC50 is 0.081 µM on human CB1 receptors and 8 nM at human CB2 receptors.

Take `Cc1nc(C(C)(C)NC(=O)c2ccc(N3CCC(=O)C3)c(OCC3CC3)n2)no1` [Example 334, 6-Cyclopropylmethoxy-5-(3-oxo-pyrrolidin-1-yl)-pyridine-2-carboxylic acid [1-methyl-1-(5-methyl-[1,2,4]oxadiazol-3-yl)-ethyl]-amide]: the EC50 was over 10 µM on human CB1 receptors and 108 nM at human CB2 receptors.

For the compound `Cc1nc([C@H](CC(C)C)NC(=O)c2cccc(S(=O)(=O)CC(C)C)n2)no1` [Example 335, 6-(2-Methyl-propane-1-sulfonyl)-pyridine-2-carboxylic acid [(S)-3-methyl-1-(5-methyl-[1,2,4]oxadiazol-3-yl)-butyl]-amide], the 50% effective concentration (EC50) at human CB1 receptors was over 10 µM; on human CB2 receptors, 962 nM.

`CC(C)C[C@H](NC(=O)c1ccc(C2CC2)c(Cc2ccc(F)cc2)n1)C(=O)O` [Example 336, (S)-2-{[5-Cyclopropyl-6-(4-fluoro-benzyl)-pyridine-2-carbonyl]-amino}-4-methyl-pentanoic acid]: the results for the EC50 at human CB1 receptors and on human CB2 receptors were over 10 µM and 239 nM, respectively.

`CCC(CC)(NC(=O)c1ccc(C2CC2)c(OCC2CCOCC2)n1)C(=O)O` [Example 337, 2-{[5-Cyclopropyl-6-(tetrahydro-pyran-4-ylmethoxy)-pyridine-2-carbonyl]-amino}-2-ethyl-butyric acid]: the EC50 at human CB1 receptors was determined as 0.475 µM; at human CB2 receptors, 34.5 nM.

For `Cn1c(C(C)(C)NC(=O)c2ccc(C3CC3)c(OCC3CC3)n2)noc1=O` [Example 338, 5-Cyclopropyl-6-cyclopropylmethoxy-pyridine-2-carboxylic acid [1-methyl-1-(4-methyl-5-oxo-4,5-dihydro-[1,2,4]oxadiazol-3-yl)-ethyl]-amide], the figures for the EC50 at human CB1 receptors and at human CB2 receptors were over 10 µM and 534 nM, respectively.

In the case of `CC(C)CC(NC(=O)c1ccc(N2CC(F)(F)C2)c(OCC2CC2)n1)c1ncccn1` (stereo not drawn) [Example 339, 6-Cyclopropylmethoxy-5-(3,3-difluoro-azetidin-1-yl)-pyridine-2-carboxylic acid (3-methyl-1-pyrimidin-2-yl-butyl)-amide], the figures for the concentration giving a half-maximal response (EC50) on human CB1 receptors and on human CB2 receptors were over 10 µM and 64.9 nM, respectively.

In the case of `Cc1nc(C(C)(NC(=O)c2ccc(N3CC(F)(F)C3)c(OCC3CC3)n2)C2CC2)no1` (stereo not drawn) [Example 340, 6-Cyclopropylmethoxy-5-(3,3-difluoro-azetidin-1-yl)-pyridine-2-carboxylic acid [1-cyclopropyl-1-(5-methyl-[1,2,4]oxadiazol-3-yl)-ethyl]-amide], the EC50 at human CB1 receptors was over 10 µM; on human CB2 receptors, 5.7 nM.

With `Cc1nc(C(C)(CC2CC2)NC(=O)c2ccc(N3CC(F)(F)C3)c(OCC3CC3)n2)no1` (stereo not drawn) [Example 341, 6-Cyclopropylmethoxy-5-(3,3-difluoro-azetidin-1-yl)-pyridine-2-carboxylic acid [2-cyclopropyl-1-methyl-1-(5-methyl-[1,2,4]oxadiazol-3-yl)-ethyl]-amide], the EC50 at human CB1 receptors was over 10 µM; at human CB2 receptors it was 8.4 nM.
